Measured values published in US20110104301A1, “METHODS OF REDUCING PAIN AND INFLAMMATION” (Georgetown University, A Congressionally Chartered …, priority 2008, published 2011).

Key:
mutant S502A/S800A TRPV1 = target: T1, mutant S502A/S800A TRPV1 (Rattus norvegicus, UniProt O35433, S502A/S800A); assay: Heat activation in oocytes expressing mutant S502A/S800A TRPV1; type: cell-based
T1 construct: expressed in transfected cells; host or cells: Xenopus laevis oocytes (cRNA injection)
Procedure: Oocyte electrophysiology. […] Oocytes were placed in a Perspex chamber and continuously superfused (5 ml min-1) with Ca2+-free solution containing (in mM): 100 NaCl, 2.5 KCl, 5 HEPES, 1 MgCl2 and titrated to pH 7.3 with 5 mM NaOH. For solutions <pH 6.0, HEPES was replaced with either 5 mM MES or 5 mM sodium citrate. Oocytes were routinely voltage-clamped at -60 mV at 22-23° C.

TRPV1 = TRPV1 (Rattus norvegicus, UniProt O35433); assay: Voltage-clamp of TRPV1-expressing Xenopus oocytes (capsaicin, protons, heat); type: cell-based; settings: PDBu 200 nM, 3 minutes
Sequence of TRPV1 (O35433 whole entry, the tested form may be a part): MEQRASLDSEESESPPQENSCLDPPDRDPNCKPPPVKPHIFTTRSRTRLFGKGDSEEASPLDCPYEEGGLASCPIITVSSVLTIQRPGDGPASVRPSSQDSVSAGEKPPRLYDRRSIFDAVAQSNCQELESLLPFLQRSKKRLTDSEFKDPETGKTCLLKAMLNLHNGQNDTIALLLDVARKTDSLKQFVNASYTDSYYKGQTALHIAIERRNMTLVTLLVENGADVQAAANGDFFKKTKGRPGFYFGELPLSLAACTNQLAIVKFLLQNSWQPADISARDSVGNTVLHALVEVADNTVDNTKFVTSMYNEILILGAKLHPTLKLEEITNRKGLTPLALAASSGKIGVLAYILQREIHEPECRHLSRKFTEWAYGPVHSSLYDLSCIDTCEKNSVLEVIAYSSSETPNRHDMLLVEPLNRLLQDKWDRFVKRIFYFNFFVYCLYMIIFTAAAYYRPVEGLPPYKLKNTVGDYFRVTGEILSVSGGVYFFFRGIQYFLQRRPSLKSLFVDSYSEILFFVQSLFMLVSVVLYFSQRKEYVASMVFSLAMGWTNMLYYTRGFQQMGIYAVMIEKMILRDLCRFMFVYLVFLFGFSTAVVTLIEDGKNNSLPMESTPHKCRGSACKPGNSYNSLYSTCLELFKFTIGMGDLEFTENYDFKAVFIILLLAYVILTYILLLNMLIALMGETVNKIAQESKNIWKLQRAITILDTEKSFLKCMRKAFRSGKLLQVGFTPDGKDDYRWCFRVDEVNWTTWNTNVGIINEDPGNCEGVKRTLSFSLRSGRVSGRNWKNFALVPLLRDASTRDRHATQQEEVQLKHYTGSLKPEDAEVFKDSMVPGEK
Procedure: Oocyte electrophysiology. […] Oocytes were placed in a Perspex chamber and continuously superfused (5 ml min-1) with Ca2+-free solution containing (in mM): 100 NaCl, 2.5 KCl, 5 HEPES, 1 MgCl2 and titrated to pH 7.3 with ˜5 mM NaOH. For solutions <pH 6.0, HEPES was replaced with either 5 mM MES or 5 mM sodium citrate. Oocytes were routinely voltage-clamped at −60 mV at 22-23° C. For heat activation, bath temperature was raised from ˜22-50° C. over ˜100 s using an in-line solution heater (Warner Instruments). The temperature was continuously monitored with a probe placed within 2 mm of the oocyte. The temperature-activation threshold was defined as a 20% increase in current above baseline.
Volatile general anesthetics. Saturated stock solutions of volatile general anesthetics (VGAs) were prepared in gas-tight bottles by dissolving excess anesthetic agents in bath solutions and stirring vigorously overnight. From these stock solutions fresh dilutions were made up every 40-60 minutes. Concentrations of volatile anesthetics in the bath solutions were verified using a modified head-space gas chromatography method. The gas chromatograph (Carlo Erba, Milan, Italy) was equipped with a flame ionization detector (FID) and mass spectrometer. The carrier gas was hydrogen (60 kPa column head pressure) and the fused silica capillary column, coated with polysiloxane SE-30, was 25 m×0.25 mm. Injector temperature was 250° C., FID temperature was 300° C. and the oven was maintained at 90° C. Standards were prepared from a mixture of halothane, isoflurane, and sevoflurane dissolved in acetonitrile with enflurane as an internal standard.

Drosophila TRPA1 = target: T2, Drosophila TRPA1 (Drosophila melanogaster, UniProt Q7Z020); assay: Current-voltage recordings in dTRPA1-expressing HEK293 cells; type: cell-based; settings: desflurane at concentrations up to 3 mM
T2 construct: expressed in transfected cells; host or cells: HEK293
T2 sequence (Q7Z020 1-1197): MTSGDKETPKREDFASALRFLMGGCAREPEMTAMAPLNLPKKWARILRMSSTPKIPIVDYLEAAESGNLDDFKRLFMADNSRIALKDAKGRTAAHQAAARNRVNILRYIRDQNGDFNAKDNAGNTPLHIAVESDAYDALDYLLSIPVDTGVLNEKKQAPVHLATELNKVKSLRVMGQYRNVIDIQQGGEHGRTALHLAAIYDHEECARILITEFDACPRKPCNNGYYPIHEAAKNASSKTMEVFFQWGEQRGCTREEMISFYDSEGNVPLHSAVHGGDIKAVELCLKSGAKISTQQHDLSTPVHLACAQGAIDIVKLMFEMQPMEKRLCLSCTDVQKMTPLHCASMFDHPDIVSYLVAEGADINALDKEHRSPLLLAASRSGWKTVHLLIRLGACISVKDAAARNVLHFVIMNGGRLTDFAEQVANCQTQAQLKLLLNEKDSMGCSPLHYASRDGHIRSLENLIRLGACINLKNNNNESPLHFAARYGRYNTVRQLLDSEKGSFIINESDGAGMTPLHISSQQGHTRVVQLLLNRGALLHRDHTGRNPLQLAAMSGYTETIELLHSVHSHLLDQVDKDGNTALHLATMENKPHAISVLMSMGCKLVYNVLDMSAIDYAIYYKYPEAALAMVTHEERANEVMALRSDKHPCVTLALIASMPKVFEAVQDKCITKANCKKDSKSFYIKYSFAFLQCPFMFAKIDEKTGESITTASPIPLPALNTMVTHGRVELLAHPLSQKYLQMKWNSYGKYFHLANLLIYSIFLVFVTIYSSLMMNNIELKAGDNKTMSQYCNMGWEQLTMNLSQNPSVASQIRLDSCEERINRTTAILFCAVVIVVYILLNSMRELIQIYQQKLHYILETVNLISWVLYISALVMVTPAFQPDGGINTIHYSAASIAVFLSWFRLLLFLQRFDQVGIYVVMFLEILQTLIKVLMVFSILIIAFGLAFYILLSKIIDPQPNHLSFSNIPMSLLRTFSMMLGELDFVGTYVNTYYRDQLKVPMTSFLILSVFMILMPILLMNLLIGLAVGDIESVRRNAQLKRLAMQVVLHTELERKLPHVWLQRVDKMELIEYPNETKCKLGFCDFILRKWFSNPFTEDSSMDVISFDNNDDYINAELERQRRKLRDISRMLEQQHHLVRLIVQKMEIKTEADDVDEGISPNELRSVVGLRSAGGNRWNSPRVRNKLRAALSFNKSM
Procedure: (§1) A genetic approach was used to identify critical sites in TRPA1 and TRPV1 required for activation by general anesthetics. Drosophila TRPA1 is insensitive to desflurane (at concentrations up to 3 mM). […] Note that dTRPA1 is insensitive to AITC. Next, several chimeric TRP proteins containing dTRPA1 (unresponsive to desflurane) and mTRPA1 were tested. For the dTRPA1-mN chimera, the mouse 720 amino acid N-terminus was exchanged for the drosophila N-terminus. The N-terminal domain contains essential binding sites for AITC, and therefore studying this chimera tests an important role for the N-terminus in anesthetic-sensing. […] The mTRPA1-dTM5 construct was then studied, which is the mouse protein containing the fifth transmembrane domain of the drosophila protein.

[1] = tested on: AITC-sensitive DRG neurons; assay: Voltage- and current-clamp of DRG sensory neurons; type: cell-based, mouse; settings: 10 of 11 cells
Procedure: Electrophysiology. HEK 293F cells were transfected with rat TRPV1, TRPA1, and TRPM8 (gift of David Julius, University of California, San Francisco). Dorsal root ganglia were cultured from adult mice (C57B16/J wild type and TRPV1-null, and mixed B6/129 background TRPA1-null) in Neurobasal +2% B-27 medium (Invitrogen), 0.1% L-glutamine and 1% penicillin/streptomycin. Whole-cell and single-channel patch-clamp recordings were performed by using an EPC8 amplifier (HEKA Electronics). For whole-cell and excised patch recordings the bath solution contained 140 mMNaCl, 4 mMKCl, 1 mMMgCl2, 1.2 mMCaCl2, 10 mMHepes, 10 mM glucose, pH 7.3. For cell-attached experiments, NaCl was replaced with KCl in the bath solution. The pipette solution contained 140 mM NaCl or KCl, 10 mM Hepes, 5 mM EGTA, pH 7.3. For neuronal recording NaCl was replaced with K-gluconate (plus 1 mMATP, 0.2 mM GTP). Solutions were applied via a gravity-fed system. Separate outlets were used to apply capsaicin and AITC solutions to avoid contamination. Voltage-dependent properties were measured as described in Matt and Ahern, J. Physiol. 585:469-482 (2007). Current-voltage measurements comprised a 200-ms ramp from −150 mV to +200 mV. The baseline currents under control conditions were subtracted. For cell-attached experiments, peak amplitudes were measured from all-points histograms, and open probability was measured as NPo>750 ms. Defolliculated Xenopus laevis oocytes were injected with ≈10 ng of hTRPA1 (gift of Ardem Patapoutian, The Scripps Research Institute, La Jolla, Calif.). Oocytes were placed in a Perspex chamber and continuously superfused (5 ml min^−1) with Ca^2+-free solution containing 100 mM NaCl, 2.5 mM KCl, 5 mM Hepes, 1 mM MgC12 and titrated to pH 7.3 with ˜5 mM NaOH.

dTRPA1-mN chimera = target: T3, dTRPA1-mN chimera (UniProt Q7Z020+Q8BLA8); assay: Current-voltage recordings of chimera dTRPA1-mN; type: cell-based; settings: mouse N-terminus substituted
T3 construct: mouse TRPA1 N-terminus (720 amino acids); expressed in transfected cells
T3 sequence (Q8BLA8+Q7Z020 fused, change not shown): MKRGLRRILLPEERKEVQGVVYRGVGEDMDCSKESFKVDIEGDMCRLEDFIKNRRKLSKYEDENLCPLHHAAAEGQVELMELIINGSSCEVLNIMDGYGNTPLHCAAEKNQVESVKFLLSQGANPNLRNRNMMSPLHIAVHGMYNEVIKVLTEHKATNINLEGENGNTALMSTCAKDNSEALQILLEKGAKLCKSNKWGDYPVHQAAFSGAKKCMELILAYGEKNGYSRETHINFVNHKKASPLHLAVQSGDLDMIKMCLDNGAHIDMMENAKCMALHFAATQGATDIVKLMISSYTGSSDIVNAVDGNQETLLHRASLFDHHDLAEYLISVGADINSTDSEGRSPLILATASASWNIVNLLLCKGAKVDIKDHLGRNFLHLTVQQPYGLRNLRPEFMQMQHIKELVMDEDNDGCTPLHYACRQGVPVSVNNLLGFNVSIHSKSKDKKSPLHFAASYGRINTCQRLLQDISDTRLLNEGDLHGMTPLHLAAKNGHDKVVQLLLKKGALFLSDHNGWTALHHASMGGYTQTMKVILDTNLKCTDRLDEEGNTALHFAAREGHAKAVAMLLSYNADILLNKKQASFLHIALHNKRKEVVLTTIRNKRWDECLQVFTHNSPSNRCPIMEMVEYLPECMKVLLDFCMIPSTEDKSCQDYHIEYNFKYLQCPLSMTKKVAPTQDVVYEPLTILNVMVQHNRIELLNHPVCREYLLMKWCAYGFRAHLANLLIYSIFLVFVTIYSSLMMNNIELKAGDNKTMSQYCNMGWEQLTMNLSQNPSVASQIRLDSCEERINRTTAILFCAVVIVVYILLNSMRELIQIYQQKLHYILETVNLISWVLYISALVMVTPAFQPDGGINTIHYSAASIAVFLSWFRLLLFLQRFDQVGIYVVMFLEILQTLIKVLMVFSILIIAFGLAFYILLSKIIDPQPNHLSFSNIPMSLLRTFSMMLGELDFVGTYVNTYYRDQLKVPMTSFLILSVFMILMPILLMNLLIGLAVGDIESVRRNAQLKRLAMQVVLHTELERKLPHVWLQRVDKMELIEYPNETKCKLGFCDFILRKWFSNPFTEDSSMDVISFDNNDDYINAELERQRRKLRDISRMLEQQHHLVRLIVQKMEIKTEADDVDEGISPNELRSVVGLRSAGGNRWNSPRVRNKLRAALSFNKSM
Procedure: as §1

T1 sequence (O35433 whole entry S502A/S800A): as the sequence (O35433 whole entry, the tested form may be a part) above, with S502A, S800A counted along it

Row | SMILES | Effect of PDBu in oocytes expressing mutant TRPV1 (mutant S502A/S800A TRPV1) | Temperature threshold of TRPV1 heat activation, PDBu alone (TRPV1) [°C] | Sensitivity of Drosophila TRPA1 (Drosophila TRPA1) | Isoflurane-responsive neurons also sensitive to AITC [1] [%] | Response of dTRPA1-mN chimera (dTRPA1-mN chimera)
1 | CCCC(=O)O[C@@H]1[C@@H](C)[C@@]2(O)[C@@H](C=C(CO)C[C@]3(O)C(=O)C(C)=C[C@@H]23)[C@@H]2C(C)(C)[C@]12OC(=O)CCC [PDBu, phorbol 12, 13 dibutyrate] | did not produce a significant effect | 39.3±2.3 | – | – | –
2 | C=CCN=C=S [AITC] | – | – | insensitive | 91 | conferred AITC-sensitivity
